Results as given in US7772241B2, “Variolin derivatives and their use as antitumor agents” (Pharma Mar S.A., priority 2001, dated 2010).

What was measured:
K-562 = test: Inhibition of cells growth by colorimetric (SRB) assay, K-562; details: for GI50 / CC50: Homo sapiens, K562, 48 h; for GI50: read-out: GI50 K-562, SRB assay, 48 hours exposure; for CC50: read-out: LC50 K-562, SRB assay, 48 hours exposure; for TGI K-562: SRB assay, 48 hours exposure
How it was run: (§1)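 Read-out is sulforhodamine B protein stain (OD 490 nm) after cold TCA fixation, following 48 h continuous exposure to samples spanning 10 to 10^−8 μg/ml.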

LoVo-Dox = test: Inhibition of cells growth by colorimetric (SRB) assay, LoVo-Dox
How it was run: as §1

HT-29 = test: Inhibition of cells growth by colorimetric (SRB) assay, HT-29
How it was run: as §1

IGROV-1 = test: Inhibition of cells growth by colorimetric (SRB) assay, IGROV-1; details: for GI50 / CC50: Homo sapiens, IGROV-1, 48 h; for GI50: read-out: GI50 IGROV, SRB assay, 48 hours exposure; for CC50: read-out: LC50 IGROV, SRB assay, 48 hours exposure; for TGI IGROV: SRB assay, 48 hours exposure
How it was run: as §1

DU-145 = test: Inhibition of cells growth by colorimetric (SRB) assay, DU-145; details: for GI50 / CC50: Homo sapiens, DU-145, 48 h; for GI50: read-out: GI50 DU-145, SRB assay, 48 hours exposure; for CC50: read-out: LC50 DU-145, SRB assay, 48 hours exposure; for TGI DU-145: SRB assay, 48 hours exposure
How it was run: as §1

IGROV-ET = test: Inhibition of cells growth by colorimetric (SRB) assay, IGROV-ET; details: for GI50 / CC50: Homo sapiens, 48 h; for GI50: read-out: GI50 IGROV-ET, SRB assay, 48 hours exposure; for CC50: read-out: LC50 IGROV-ET, SRB assay, 48 hours exposure; for TGI IGROV-ET: SRB assay, 48 hours exposure
How it was run: as §1

SK-BR-3 = test: Inhibition of cells growth by colorimetric (SRB) assay, SK-BR-3; details: for GI50 / CC50: Homo sapiens, SK-BR-3, 48 h; for GI50: read-out: GI50 SK-BR-3, SRB assay, 48 hours exposure; for CC50: read-out: LC50 SK-BR-3, SRB assay, 48 hours exposure; for TGI SK-BR-3: SRB assay, 48 hours exposure
How it was run: as §1

LoVo = test: Inhibition of cells growth by colorimetric (SRB) assay, LoVo
How it was run: as §1

LNCaP = test: Inhibition of cells growth by colorimetric (SRB) assay, LNCaP; details: for GI50 / CC50: Homo sapiens, LNCaP, 48 h; for GI50: read-out: GI50 LN-caP, SRB assay, 48 hours exposure; for CC50: read-out: LC50 LN-caP, SRB assay, 48 hours exposure; for TGI LN-caP: SRB assay, 48 hours exposure
How it was run: as §1

PANC-1 = test: Inhibition of cells growth by colorimetric (SRB) assay, PANC-1; details: for GI50: read-out: GI50 PANC-1, SRB assay, 48 hours exposure
How it was run: as §1

SK-MEL-28 = test: Inhibition of cells growth by colorimetric (SRB) assay, SK-MEL-28; details: for GI50 / CC50: Homo sapiens, SK-MEL-28, 48 h; for GI50: read-out: GI50 MEL-28, SRB assay, 48 hours exposure; for CC50: read-out: LC50 MEL-28, SRB assay, 48 hours exposure; for TGI MEL-28: SRB assay, 48 hours exposure
How it was run: as §1

A-549 = test: Inhibition of cells growth by colorimetric (SRB) assay, A-549; details: for GI50 / CC50: Homo sapiens, A549, 48 h; for GI50: read-out: GI50 A-549, SRB assay, 48 hours exposure; for CC50: read-out: LC50 A-549, SRB assay, 48 hours exposure; for TGI A-549: SRB assay, 48 hours exposure
How it was run: as §1

[1] = Inhibition of cells growth by colorimetric (SRB) assay, HMEC1; details: human, HMEC1 cells, LC50 H-MEC-1, SRB assay, 48 hours exposure
HMEC1 = test: as above; details: for GI50: Homo sapiens, HMEC-1, 48 h, read-out: GI50 H-MEC-1, SRB assay, 48 hours exposure; for TGI H-MEC-1: SRB assay, 48 hours exposure, in M (unit assumed)
SK-OV-3 = test: Inhibition of cells growth by colorimetric (SRB) assay, SK-OV-3; details: for GI50 / CC50: Homo sapiens, SK-OV-3, 48 h; for GI50: read-out: GI50 SKOV-3, SRB assay, 48 hours exposure; for CC50: read-out: LC50 SKOV-3, SRB assay, 48 hours exposure; for TGI SKOV-3: SRB assay, 48 hours exposure
How it was run: as §1

| SMILES | GI50 (K-562) | CC50 (K-562) | TGI K-562 (K-562) | GI50 (IGROV-1) | CC50 (IGROV-1) | TGI IGROV (IGROV-1) | GI50 (DU-145) | CC50 (DU-145) | TGI DU-145 (DU-145) | GI50 (IGROV-ET) | CC50 (IGROV-ET) | TGI IGROV-ET (IGROV-ET) | GI50 (SK-BR-3) | CC50 (SK-BR-3) | TGI SK-BR-3 (SK-BR-3) | GI50 (LNCaP) | CC50 (LNCaP) | TGI LN-caP (LNCaP) | GI50 (PANC-1; Homo sapiens, PANC-1, 48 h) | GI50 (SK-MEL-28) | also measured |
| --- | --- | --- | --- | --- | --- | --- | --- | --- | --- | --- | --- | --- | --- | --- | --- | --- | --- | --- | --- | --- | --- |
| Nc1nccc(-c2c3c(F)ccnc3n3c(N)nccc23)n1 [Compound 115] | 4.47 µM | 28.9 µM | 1.13E−05 | 1.23 µM | ≥ 33.9 µM | 5.22E−06 | 0.759 µM | 10.7 µM | 1.79E−06 | 1.47 µM | ≥ 33.9 µM | 6.84E−06 | 0.752 µM | 6.23 µM | 1.69E−06 | 0.721 µM | 2.34 µM | 1.30E−06 | 2.05 µM | 1.12 µM | GI50 (LoVo-Dox; Homo sapiens, 48 h, read-out: GI50 LOVO-DOX, SRB assay, 48 hours exposure): 1.39 µM; CC50 (LoVo-Dox; Homo sapiens, 48 h, read-out: LC50 LOVO-DOX, SRB assay, 48 hours exposure): ≥ 33.9 µM; TGI LOVO-DOX (LoVo-Dox; SRB assay, 48 hours exposure): 5.76E−06; GI50 (HT-29; Homo sapiens, HT-29, 48 h, read-out: GI50 HT-29, SRB assay, 48 hours exposure): 2.15 µM; CC50 (HT-29; Homo sapiens, HT-29, 48 h, read-out: LC50 HT-29, SRB assay, 48 hours exposure): ≥ 33.9 µM; TGI HT-29 (HT-29; SRB assay, 48 hours exposure): 1.31E−05; GI50 (LoVo; Homo sapiens, LoVo, 48 h, read-out: GI50 LOVO, SRB assay, 48 hours exposure): 0.894 µM; CC50 (LoVo; Homo sapiens, LoVo, 48 h, read-out: LC50 LOVO, SRB assay, 48 hours exposure): ≥ 33.9 µM; TGI LOVO (LoVo; SRB assay, 48 hours exposure): 1.91E−06; CC50 (PANC-1; Homo sapiens, PANC-1, 48 h, read-out: LC50 PANC-1, SRB assay, 48 hours exposure): ≥ 33.9 µM; TGI PANC-1 (PANC-1; SRB assay, 48 hours exposure): 9.35E−06; CC50 (SK-MEL-28): 12.1 µM; TGI MEL-28 (SK-MEL-28): 4.13E−06; GI50 (A-549): 0.748 µM; CC50 (A-549): ≥ 33.9 µM; TGI A-549 (A-549): 1.97E−06; CC50 at 48 h [1]: 5.96 µM; GI50 (HMEC1): 0.599 µM; TGI H-MEC-1 (HMEC1): 1.56E−06 |
| COc1nccc(-c2c3c(Cl)ccnc3n3c(N)nccc23)n1 [Compound 112] | 1.4 µM | 30.6 µM | 8.66E−06 | 1.65 µM | 30.6 µM | 7.59E−06 | 0.716 µM | 3.06 µM | 1.72E−06 | 7.65 µM | 30.6 µM | 1.91E−05 | 2.01 µM | 27.8 µM | 7.13E−06 | 0.872 µM | 2.62 µM | 1.51E−06 | 6.34 µM | 0.321 µM | GI50 (SK-OV-3): 0.989 µM; CC50 (SK-OV-3): 30.6 µM; TGI SKOV-3 (SK-OV-3): 2.30E−06; CC50 (SK-MEL-28): 16.6 µM; TGI MEL-28 (SK-MEL-28): 5.29E−06; GI50 (A-549): 1.38 µM; CC50 (A-549): 30.6 µM; TGI A-549 (A-549): 4.35E−06; CC50 at 48 h [1]: 11.9 µM; GI50 (HMEC1): 1.27 µM; TGI H-MEC-1 (HMEC1): 4.71E−06 |
| COc1ccc(CNc2ccnc3c2c(-c2ccnc([S+](C)[O-])n2)c2ccnc(NCc4ccc(OC)cc4)n23)cc1 (centres unmarked) [Compound 86] | ≥ 17.3 µM | ≥ 17.3 µM | 1.73E−05 | ≥ 17.3 µM | ≥ 17.3 µM | 1.73E−05 | ≥ 17.3 µM | ≥ 17.3 µM | 1.73E−05 | ≥ 17.3 µM | ≥ 17.3 µM | 1.73E−05 | ≥ 17.3 µM | ≥ 17.3 µM | 1.73E−05 | ≥ 17.3 µM | ≥ 17.3 µM | 1.73E−05 | ≥ 17.3 µM | ≥ 17.3 µM | GI50 (SK-OV-3): ≥ 17.3 µM; CC50 (SK-OV-3): ≥ 17.3 µM; TGI SKOV-3 (SK-OV-3): 1.73E−05; CC50 (SK-MEL-28): ≥ 17.3 µM; TGI MEL-28 (SK-MEL-28): 1.73E−05; GI50 (A-549): ≥ 17.3 µM; CC50 (A-549): ≥ 17.3 µM; TGI A-549 (A-549): 1.73E−05; CC50 at 48 h [1]: ≥ 17.3 µM; GI50 (HMEC1): 7.99 µM; TGI H-MEC-1 (HMEC1): 1.73E−05 |
